In PubChem BioAssay AID743016 (Vanderbilt Specialized Chemistry Center, 2013):

Target: Mas-related G-protein coupled receptor member X1 (Homo sapiens) (UniProt Q96LB2)
Test: enhancers of MrgX1 receptor signaling – cell-based, HEK293, calcium flux, BAM8-22, dose response (AID 743016)
Conditions: HEK293-MrgX1, Fluo4 calcium flux, BAM8-22 potentiation; with BAM 0.1 µM

Chain of Mas-related G-protein coupled receptor member X1 (Homo sapiens) (Q96LB2 whole entry, looked up): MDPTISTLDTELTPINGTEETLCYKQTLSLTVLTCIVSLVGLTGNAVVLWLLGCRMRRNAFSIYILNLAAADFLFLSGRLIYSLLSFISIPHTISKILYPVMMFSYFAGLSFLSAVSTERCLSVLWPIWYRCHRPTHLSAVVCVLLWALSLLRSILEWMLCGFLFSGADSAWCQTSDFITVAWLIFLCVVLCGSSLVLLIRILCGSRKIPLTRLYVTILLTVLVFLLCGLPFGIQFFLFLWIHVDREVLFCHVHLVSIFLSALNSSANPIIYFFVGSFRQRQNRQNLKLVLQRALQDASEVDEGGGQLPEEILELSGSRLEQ

Structure (SMILES)	EC50
COc1ccc(NC(=O)c2ccccc2NS(=O)(=O)c2cccnc2Cl)c(OC)c1	2.91 µM
CSc1ccccc1NC(=O)c1ccccc1N(C)S(C)(=O)=O	0.5 µM
CCOc1ccccc1NC(=O)c1ccccc1NS(=O)(=O)CC1CC1	4.47 µM
COc1ccccc1NC(=O)c1ccccc1NS(C)(=O)=O	3.06 µM
COc1ccc(NC(=O)c2ccccc2NS(C)(=O)=O)c(OC)c1	0.15 µM
CSc1ccccc1NC(=O)c1ccccc1NS(C)(=O)=O	0.42 µM
CCOc1ccccc1NC(=O)c1ccccc1NS(=O)(=O)CC	0.91 µM
COc1ccc(C)cc1NC(=O)c1ccccc1NS(C)(=O)=O	2.34 µM
COc1ccc(Cl)cc1NC(=O)c1ccccc1NS(C)(=O)=O	1.01 µM
CCOc1ccccc1NC(=O)c1ccccc1NS(=O)(=O)C(C)C	1.82 µM
COC(=O)c1ccccc1NC(=O)c1ccccc1N(C)S(C)(=O)=O	1.57 µM
CCOc1ccccc1NC(=O)c1ccccc1NS(=O)(=O)CCCl	0.38 µM
CCOc1ccccc1NC(=O)c1ccccc1N(C)S(C)(=O)=O	1.39 µM
CCOc1ccccc1NC(=O)c1ccccc1NS(=O)(=O)C1CC1	0.19 µM
CCOc1ccccc1NC(=O)c1ccccc1NS(C)(=O)=O	1.91 µM
